≈ marks a conversion by molar mass, not a printed value. Where a SMILES comes first, the peptide text is derived from it. The star is where a group is joined. X1 = C[C@@H]1[C@H](O)[C@@H](C)/C=C/C=C/C=C/C=C/C=C/C=C/C=C/[C@H](O[C@@H]2O[C@H](C)[C@@H](O)[C@H](NC(=O)CCCCCN3C(=O)CC(*)C3=O)[C@@H]2O)C[C@@H]2O[C@](O)(C[C@@H](O)C[C@@H](O)[C@H](O)CC[C@@H](O)C[C@@H](O)CC(=O)O[C@H]1C)C[C@H](O)[C@H]2C(=O)O; X3 = CC(=O)O[C@H]1C(=O)[C@@]2(C)[C@H]([C@H](OC(=O)c3ccccc3)[C@]3(O)C[C@H](OC(=O)[C@H](OC(=O)CCCCCN4C(=O)CC(*)C4=O)[C@@H](NC(=O)c4ccccc4)c4ccccc4)C(C)=C1C3(C)C)[C@]1(OC(C)=O)CO[C@@H]1C[C@@H]2O

The text below walks through data of patent US7544664B2, “Sequences facilitating penetration of a substance of interest” (priority 2003, dated 2009).

For data set [1], the system named is OVCAR-3: human ovary carcinoma. Briefly: cells. The data set is classed as cell-based. As to conditions: OVCAR-3 ovary carcinoma; 1 h incubation + 72 h post-incubation. As for the experimental part: OVCAR-3: human ovary carcinoma (origin: ATCC #HTB-161)
(§1) Viability assays were performed. Briefly, cells are seeded in 96-well plates and incubated with increasing concentrations of drugs for 1 hour then cells are rinsed and incubated with fresh medium without drugs for 72 hours. A WST-1 test (from Roche) was performed and IC50 values (drug concentration that inhibits 50% of cell viability) were estimated from sigmoidal regressions.
(§2) We tested the inhibition of in vitro cell proliferation of human carcinoma cells, and we calculated IC50 values=drug concentration that inhibits 50% of cell viability.

The test system of data set [2] is NCI-H1299: human non small cell lung carcinoma. Nature of the data set: cells. The data set is classed as cell-based. The following applies: H1299 NSCLC; 1 h incubation + 72 h post-incubation. As for the experimental part:
NCI-H1299: human non small cell lung carcinoma (NSCLC) (origin: ATCC #CRL-5803)
as §1, §2

Data set [3] concerns MES-SA/Dx5: human uterine sarcoma, resistant to paclitaxel. The following applies: read-out: IC50 values, 1 h incubation + 72 h post-incubation.
Source text: MES-SA/Dx5: human uterine sarcoma, resistant to paclitaxel, expressing high P-gp (origin: ATCC #CCL-1977).
The nature of data set [4]: Solubility in water / aqueous solutions. The following applies: water.
The test system of data set [5] is Candida albicans (ATCC 90028). Briefly: Lethal murine candidiasis model. As to conditions: single i.v. 3 hours after inoculation. The data set is classed as in vivo, mice. How it is done: Test substances (DPV15-AmB and AmB (Fungizone)) and vehicule control were administrated i.v. with doses ranging from 0.25 mg/kg to 2.5 mg/kg AmB equivalent to test animals 3 hours after the fungal inoculation. Mortality was recorded once daily for 8 days.

Data set [6] in a line: Single dose toxicity, intravenous injection. The data set is classed as in vivo, mice. How it is done: The single dose toxicity of the DPV15-AmB conjugate was assessed by mortality and/or body weight loss after a single dose intravenous injection. Mice were treated with DPV15-AmB 2.57, 3.68, 5.52, 7.36, 9.2, 18.4 and 36.8 mg/kg with vehicle (NaCl/H2O 9/1 v/v). These different doses correspond to 0.7, 1, 1.5, 2, 2.5, 5 and 10 mg/kg of AMB respectively. The dose of 1 mg/kg corresponds to the MTD of AmB exposed in the literature (Tabosa Do Egito et al., In-vitro and In-vivo evaluation of a new amphothericin B emulsion-based delivery system. J Antimicrob Vhemother. 1996 September; 38(3):485-97).

Another data set relates to HeLa cells. Nature of the data set: Poly-L-Lys inhibition of the internalization of DPV-PO conjugates. The data set is classed as cell-based. The following applies: inhibition of DPV-PO internalization (25 μg/ml, 4 h) in HeLa cells. How it is done:
In order to verify this hypothesis, we tested the inhibition of DPV-PO internalization in HeLa cells in the presence of Poly-L-Lysine in the incubation medium: positively charged poly-L-Lys should bind to the negative charges of the cell surface, and prevent the binding of DPVs.
HeLa cells cultivated on glass labtek slides for 24 hours were pre-incubated with the indicated concentrations of poly-L-Lys for 1 hour at 37° C. Cells were then incubated for 4 hours in the presence of DPV-PO conjugates at 25 μg/ml in cell culture medium containing the same quantity of poly-L-Lys. Internalized PO was quantified after extensive treatment with trypsin to eliminate surface bound material, and subsequent cell lysis. Results are given in picogram PO per 1000 cells.

The conditions of data set [7]: literature (Tabosa Do Egito et al. 1996); cited from earlier work.
The subject of data set [8] is Candida parapsilosis (ATCC 22019). Briefly: In vitro antifungal activity MIC80 (NCCLS M27A). The following applies: MIC80, 48 hours, 37° C.; DPV15-AmB and AmB in μg/ml of AmB active product.

For `CC(=O)O[C@H]1C(=O)[C@@]2(C)[C@H]([C@H](OC(=O)c3ccccc3)[C@]3(O)C[C@H](OC(=O)[C@H](OC(=O)CCCCCN4C(=O)CC(SC[C@H](NC(=O)[C@H](CCCNC(=N)N)NC(=O)[C@H](CO)NC(=O)[C@H](CCC(N)=O)NC(=O)[C@H](CCCNC(=N)N)NC(=O)[C@H](CCC(=O)O)NC(=O)[C@H](CCCNC(=N)N)NC(=O)[C@H](CCCNC(=N)N)NC(=O)[C@H](CC(C)C)NC(=O)[C@H](CCCNC(=N)N)NC(=O)[C@H](CO)NC(=O)[C@H](CCC(N)=O)NC(=O)[C@H](CCCNC(=N)N)NC(=O)[C@H](CCC(=O)O)NC(=O)[C@H](CCCNC(=N)N)NC(=O)[C@H](CCCNC(=N)N)NC(=O)[C@@H](N)CC(C)C)C(=O)O)C4=O)[C@@H](NC(=O)c4ccccc4)c4ccccc4)C(C)=C1C3(C)C)[C@]1(OC(C)=O)CO[C@@H]1C[C@@H]2O` (some centres unmarked) [DPV15-E-PTX] (H-LRRERQSRLRRERQSRC(X3)-OH), the IC50 – broadly, the point on the concentration scale where inhibition reaches its midpoint – in data set [1] stood at 0.37 ± 0.05 µM; in data set [2], 4.3 ± 2.7 µM; in data set [3] it was 33 ± 5.7 µM. Besides, the solubility (usually how much of the substance goes into solution per volume) in data set [4] was not below 10000 µg/mL.

As for `CC(C)C[C@H](NC(=O)[C@H](CCCNC(=N)N)NC(=O)[C@H](CO)NC(=O)[C@H](CCC(N)=O)NC(=O)[C@H](CCCNC(=N)N)NC(=O)[C@H](CCC(=O)O)NC(=O)[C@H](CCCNC(=N)N)NC(=O)[C@H](CCCNC(=N)N)NC(=O)[C@@H](N)CC(C)C)C(=O)N[C@@H](CCCNC(=N)N)C(=O)N[C@@H](CCCNC(=N)N)C(=O)N[C@@H](CCC(=O)O)C(=O)N[C@@H](CCCNC(=N)N)C(=O)N[C@@H](CCC(N)=O)C(=O)N[C@@H](CO)C(=O)N[C@@H](CCCNC(=N)N)C(=O)N[C@@H](CSC1CC(=O)N(CCCCCC(=O)N[C@@H]2[C@H](O)[C@H](O[C@H]3/C=C/C=C/C=C/C=C/C=C/C=C/C=C/[C@H](C)[C@@H](O)[C@@H](C)[C@H](C)OC(=O)C[C@H](O)C[C@H](O)CC[C@@H](O)[C@H](O)C[C@H](O)C[C@]4(O)C[C@H](O)[C@@H](C(=O)O)[C@H](C3)O4)O[C@H](C)[C@H]2O)C1=O)C(=O)O` (some centres unmarked) [DPV15-AmB] (H-LRRERQSRLRRERQSRC(X1)-OH), the “survival on day 8” value in data set [5] (0.5 mg/kg AmB equivalent) and in data set [5] (1 mg/kg AmB equivalent) was 50% in each case. In data set [6] (18.4 mg/kg, 24 hours after the injection), this compound gave a mortality of 1 mouse was found dead. In data set [6] (18.4 mg/kg, two surviving mice, 24 hours after the injection), the “loss of initial body weight” value is recorded as “about 12%”. Further, the Acute lethal toxicity result in [6] (36.8 mg/kg (10 mg/kg of AMB), single i.v.) is on record as “observed”. Further, in [6] (2.57, 3.68, 5.52, 7.36 and 9.2 mg/kg, single i.v.), the “effect on the body weight at Day 28” value is listed as “no effect”. Moreover, the MTD at 28 day in [6] (mouse, in vivo, iv, single i.v., conjugate dose, read-out: maximal tolerated dose) was in the range of 9.2 to 18.4 mg/kg.

With Poly-L-Lysine, in the data set with HeLa cells, the “IC50 (concentration at which 50% of the maximum internalization is achieved)” value was “around 25 μg/ml”.

Consider `C[C@@H]1[C@H](O)[C@@H](C)/C=C/C=C/C=C/C=C/C=C/C=C/C=C/[C@H](O[C@@H]2O[C@H](C)[C@@H](O)[C@H](N)[C@@H]2O)C[C@@H]2O[C@](O)(C[C@@H](O)C[C@@H](O)[C@H](O)CC[C@@H](O)C[C@@H](O)CC(=O)O[C@H]1C)C[C@H](O)[C@H]2C(=O)O` [AmB, Amphotericin B], for which the MTD in [7] was 1 mg/kg. Further, the MIC – broadly, the lowest concentration that inhibits growth of the organism – in [8] amounted to 0.25 µg/mL (≈ 0.271 µM).
